From publication PMC8652888, “Angiogenesis, Anti-Tumor, and Anti-Metastatic Activity of Novel α-Substituted Hetero-Aromatic Chalcone Hybrids as Inhibitors of Microtubule Polymerization” (Frontiers in Chemistry, 2021)
“And” between values parts separate entries of the source, which are not always exact repeats. Identical values can stand only once. Like-named read-outs stand apart in the source and are kept apart here.

How the values were obtained:
[1] = tested on: U937; test: Antiproliferative activity, CCK-8 assay; assay type: cell-based; settings: Homo sapiens, U-937
Procedure: (§1) The synthesized compounds were first evaluated for their cytotoxic effect on MCF-7 (human breast adenocarcinoma), U937 (histiocytic lymphoma cancer), HepG2 (human liver cancer) cells, and MGC-803 (human gastric cancer) using the SRB and CCK-8 assay. As reference compounds CA-4 and colchicine were included.
(§2) The primary tumor cells were purchased from a professional biomedical company. First, the primary tumor cells were incubated in a cell culture incubator at 37°C and 5% CO2. After the cell fusion reached 85%–95%, subculture was performed, and the tumor cells obtained at this time were used for subsequent related experiments. The CCK-8 method was used to inhibit the proliferation of U937 tumor cells, and the SRB method was used to inhibit the proliferation of MCF7 and HepG2 tumor cells.
(§3) The cells in the logarithmic growth phase were seeded in a 96-well plate at 8,000/well, and the drug-containing medium and cell suspension were added to the well. Three wells were added with the blank medium as the blank group. The 96-well plate was incubated for 72 h in a 37°C, 5% CO2 incubator. The 10 μl of CCK-8 dye solution was added to each well, and the incubation continued for 3–4 h.

[2] = tested on: MCF-7; test: Antiproliferative activity, SRB assay; assay type: cell-based, human;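 also: proliferation of MCF7 cells quantified by sulforhodamine B staining, with optical density read at 560 nm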
[3] = tested on: HepG2; test: Antiproliferative activity, SRB assay; assay type: cell-based, human; settings: Homo sapiens, HepG2
Procedure: as §1, §2
(§4) Cells were distributed into 96-well plates with a density of 3 × 10^3–4 × 10^3 cells per well and incubated for 24 h in a 5% CO2 incubator at 37°C, followed by treatment with study compounds at different concentrations at 37°C for 72 h. One hundred microliters of 10% (w/v) trichloroacetic acid was added to each well, fixed at 4°C for 30 min, and dried at 65°C. Then 100 μl of 0.4% SRB was added to each well and stained on a shaker for 20 min at room temperature. The excess dye solution was washed with newly prepared 1% glacial acetic acid and dried at 65°C. One hundred fifty microliters of 10 mM unbuffered Trisbase was added to each well of the plate and shaken for 5 min to dissolve the dye. The microplate reader measured the optical density (OD) at a wavelength of 560 nm.

[4] = tested on: taxol-resistant MCF7 cells (MCF7/Tax); test: Growth inhibition of taxol-resistant cells; assay type: cell-based, human
[5] = tested on: normal liver LO2 cells; test: Growth inhibition of normal cells; assay type: cell-based, human
[6] = tested on: MGC-803; test: Antiproliferative activity (SRB and CCK-8 assay); assay type: cell-based; settings: Homo sapiens
Text: as §1

[7] = tested on: MCF-7, U937, HepG2 and MGC-803 cells; test: Antiproliferative activity, cancer cell panel (text summaries); assay type: cell-based, human; settings: Homo sapiens; U937, MCF-7, HepG2, MGC-803; read-out: IC50 against four cancer cell lines
Procedure: as §1, §2, §4, §3

[8] = 72 h, triplicate, mean ± SD, read-out: IC50 ± SD, U937
[9] = Homo sapiens, MCF7, 72 h, 72 h, triplicate, mean ± SD, read-out: IC50 ± SD, MCF-7
[10] = Homo sapiens, MCF7, Table 3, triplicate, read-out: IC50 ± SD, MCF7
[11] = Homo sapiens, MCF7, supplement raw data, read-out: IC50/MCF
[12] = Homo sapiens, MCF7, three single determinations, read-out: MCF-7 (raw data of table 3, IC50)
[13] = 72 h, triplicate, mean ± SD, read-out: IC50 ± SD, HepG2
[14] = Homo sapiens, MCF7, three single determinations, read-out: MCF-7/Taxol (raw data of table 3, IC50)
[15] = Homo sapiens, MCF7, triplicate, read-out: IC50 ± SD, MCF7/Tax
[16] = Homo sapiens, L02, three single determinations, read-out: L02 (raw data of table 3, IC50)
[17] = Homo sapiens, L02, triplicate, read-out: IC50 ± SD, LO2
[18] = triplicate, mean ± SD, read-out: IC50 ± SD, MGC-803
[19] = supplement raw data, read-out: IC50/MGC

SMILES | IC50 [1, 8] [nM] | IC50 [2, 9] [nM] | IC50 [3, 13] [nM] | IC50 [6, 18] [nM] | melting point [°C] | also measured
COc1ccc(/C=C\c2cc(OC)c(OC)c(OC)c2)cc1O [CA-4, reference compound] | 0.3 ± 0.1 | 11.4 ± 0.2 | 7.1 ± 0.9 |  |  | IC50 ([1]; supplement raw data, read-out: IC50/U937): 0.326 ± 0.1 nM; IC50 [2, 10]: 11.4 ± 0.2 nM; IC50 [2, 11]: 11.4 ± 0.2 nM; IC50 [2, 12]: 11.8 nM; IC50 ([3]; supplement raw data, read-out: IC50/Hepg2): 7.09 ± 0.9 nM; IC50 [4, 14]: 20.2 nM; IC50 [4, 15]: 21.2 ± 0.6 nM; IC50 ([4]; three single determinations, read-out: MCF-7/Taxol (raw data of table 3, IC50)): 22.1 nM and 21.3 nM; IC50 [5, 16]: 14.1 nM; IC50 [5, 17]: 15.2 ± 0.5 nM; IC50 ([5]; three single determinations, read-out: L02 (raw data of table 3, IC50)): 16.2 nM and 15.3 nM
COC(=O)c1cccc2[nH]cc(/C=C/C(=O)c3cc(OC)c(OC)c(OC)c3)c12 [Compound 6d, methyl(E)-3[3-oxo-3-(3,4,5-trimethoxyphenyl)prop-1-en-1-yl]-1H-indole-4-carboxylate] | > 20000 | > 20000 | > 20000 | > 20000 | 221.7 to 223.6 | IC50 [7]: > 20000 nM
COC(=O)c1ccc2[nH]cc(/C=C/C(=O)c3cc(OC)c(OC)c(OC)c3)c2c1 [Compound 6e, methyl(E)-3[3-oxo-3-(3,4,5-trimethoxyphenyl)prop-1-en-1-yl]-1H-indole-5-carboxylate] | > 20000 | > 20000 | > 20000 | > 20000 | 218.7 to 220.3 | IC50 [7]: > 20000 nM
COc1cc(C(=O)/C=C/c2ccc3occc3c2)cc(OC)c1OC [Compound 6m, (E)-3-(benzofuran-5-yl)-1-(3,4,5-trimethoxyphenyl)prop-2-en-1-one] | 6170 ± 1640 | 6460 ± 103 | > 20000 | 3180 ± 62 | 110.5 to 115.3 | 
COc1cc(C(=O)/C=C/c2ccc3c(c2)CCO3)cc(OC)c1OC [Compound 6n, (E)-3-(2,3-dihydrobenzofuran-5-yl)-1-(3,4,5-trimethoxyphenyl)prop-2-en-1-one] | > 20000 | 3130 ± 415 | > 20000 | 851 ± 63 | 107.5 to 110.3 | IC50 [6, 19]: 851 nM
COc1cc(C(=O)/C=C/c2cc3ccccc3s2)cc(OC)c1OC [Compound 6o, (E)-3-(benzo[b]thiophen-2-yl)-1-(3,4,5-trimethoxyphenyl)prop-2-en-1-one] | > 20000 | 2070 ± 43 | 8380 ± 585 | 1380 ± 86 | 115.5 to 116.9 | 
COc1cc(C(=O)/C=C/c2csc3ccccc23)cc(OC)c1OC [Compound 6p, (E)-3-(benzo[b]thiophen-3-yl)-1-(3,4,5-trimethoxyphenyl)prop-2-en-1-one] | > 20000 | 283 ± 11 | 1380 ± 136 | 76 ± 1 | 95.5 to 96.4 | IC50 [2, 11]: 283 nM; IC50 [6, 19]: 75.7 nM
COc1cc(C(=O)/C=C/c2ccc3sc4ccccc4c3c2)cc(OC)c1OC [Compound 6q, (E)-3[dibenzo (b,d)thiophen-2-yl]-1-(3,4,5-trimethoxyphenyl)prop-2-en-1-one] | 6380 ± 148 | 5090 ± 569 | 10600 ± 457 | 3220 ± 284 | 118.7 to 119.2 | 
COc1cc(C(=O)/C=C/c2nc3ccccc3n2C)cc(OC)c1OC [Compound 6r, (E)-3-[1-methyl-1H-benzo (d)imidazol-2-yl]-1-(3,4,5-trimethoxyphenyl)prop-2-en-1-one] | 1280 ± 71 | 5190 ± 465 | 4670 ± 295 | 2030 ± 225 | 123.5 to 125.2 | 
COc1cc(C(=O)/C=C/c2cccc3c2OCO3)cc(OC)c1OC [Compound 6s, (E)-3-(benzo[d][1,3]dioxol-4-yl)-1-(3,4,5-trimethoxyphenyl)prop-2-en-1-one] | > 20000 | 1230 ± 133 | 3320 ± 229 | 393 ± 17 | 138.4 to 140.3 | IC50 [6, 19]: 393 nM
CC(=O)O[C@H]1C(=O)[C@@]2(C)[C@H]([C@H](OC(=O)c3ccccc3)[C@]3(O)C[C@H](OC(=O)[C@H](O)[C@@H](NC(=O)c4ccccc4)c4ccccc4)C(C)=C1C3(C)C)[C@]1(OC(C)=O)CO[C@@H]1C[C@@H]2O [Taxol, paclitaxel] |  |  |  |  |  | IC50 [2, 10]: 24.6 ± 3.2 nM; IC50 [2, 12]: 20.6 nM; IC50 ([2]; three single determinations, listed as TaxolL, read-out: MCF-7 (raw data of table 3, IC50)): 28.3 nM and 24.9 nM; Resistant fold ([4]; (IC50 MCF7/Tax)/(IC50 MCF7)): 13.7; IC50 [4, 14]: 334 nM; IC50 [4, 15]: 336 ± 18 nM; IC50 ([4]; three single determinations, listed as TaxolL, read-out: MCF-7/Taxol (raw data of table 3, IC50)): 315 nM and 359 nM; Selectivity ratio ([5]; (IC50 human normal cells LO2)/(IC50 MCF7)): 1.3; IC50 [5, 16]: 32.1 nM; IC50 [5, 17]: 32.4 ± 1.9 nM; IC50 ([5]; three single determinations, listed as TaxolL, read-out: L02 (raw data of table 3, IC50)): 34.5 nM and 30.6 nM
